The source of these data is PMC5812345 (Chemistry (Weinheim an der Bergstrasse, Germany), 2017).

The test system of the test is U87-stb-CXCR4 cells. As to the kind of experiment: In vitro binding/uptake of 64Cu-labeled cyclotides to U87-stb-CXCR4 cells. It counts as cell-based, human. As to conditions: inhibitor at 10 μM.

Turning to `c1cc(CN2CCCNCCNCCCNCC2)ccc1CN1CCCNCCNCCCNCC1` [AMD3100], the “Reduction in bound [^64Cu]MCo-CVX-6D in the presence of excess non-radioactive inhibitor” value is “≈ 30%”.
